Experimental data taken from patent US7579006B2, “Method of treating immune pathologies with low dose estrogen” (Oregon Health and Science University, priority 2000, dated 2009).

Columns and labels:
[1] = test system: draining lymph node (DLN) cells; test: Flow cytometry of activation and adhesion markers on DLN cells of SJL mice with EAE; format: in vivo; conditions: DLN cells at peak of EAE
Experimental: Immunofluorescent staining for flow cytometry. Draining lymph node (DLN) cells were removed during the peak of clinical symptoms and analyzed for the expression of cell surface proteins by fluorescent staining ex vivo. The following fluorochrome conjugated antibodies obtained from Pharmingen Inc. (San Diego, Calif.) were used for the direct staining of DLN cells: anti-CD4, anti-CD25, anti-CD69, anti-CD95L, anti-CD44, anti-CD62L, anti-CD49d. Two-color immunofluorescent analysis was performed on a FACScan instrument (Becton Dickinson, Mountain View, Calif.) using Cellquest software. For each experiment the cells were stained with isotype control antibodies to establish background staining, and to set the quadrants prior to calculating the percent positive staining cells. […] Alterations in the expression of adhesion or activation markers on T cells are often indicative of functional changes in the cell. Monoclonal antibodies specific for a number of these markers were used to assess whether estrogen therapy altered their expression. Draining lymph node (DLN) cells were recovered from mice during the peak of clinical EAE, incubated with the indicated fluorochrome conjugated monoclonal antibodies, and surface expression measured by fluorescent activated cell analyzer.

spinal cord mRNA = test: RNase protection assay of chemokine, chemokine receptor and cytokine mRNA in spinal cords of Tg females with EAE; format: in vivo, mice; conditions: 0.36 mg pellet
Experimental: RNase protection assay. Total RNA was extracted from frozen spinal cords or lymph node cells using the STAT-60 reagent (Tel-Test, Inc., Friendswood, Tex.). Chemokine expression was determined by using the RiboQuant RPA kit (PharMingen) according to the manufacturer's instructions. A multiprobe set detected the following chemokine transcripts: C—X—C chemokines: MIP-2 and IP-10; C—C chemokines: RANTES, MIP-1α, MCP-1, and TCA-3; and C chemokine: Ltn. The chemokine receptor set detected the following transcripts: CCR1, CCR1b, CCR2, CCR3, CCR4, CCR5. Using RPA multiprobe it was possible to detect the following cytokines: IL-4, IL-10, TNF-α, LTβ, IFN-γ. The sample loading was normalized by the housekeeping gene, L32, included in each template set. RPA analysis was performed on […] total RNA hybridized with probes labeled with [^32P]UTP. After digestion of ssRNA, the RNA pellet was solubilized and resolved on a 5% sequencing gel. Controls included the probe set hybridized to transfer RNA only, appropriate control RNA which serves as integrity control for the RNA sample, and yeast tRNA as a background control. For quantification, gels were exposed by phosphorimaging (Bio-Rad Laboratories, Hercules, Calif.) and radioactivity in individual bands (after background subtraction) in comparison with L32 was assessed with Quantity One software (Bio-Rad Laboratories, Hercules, Calif.).
To optimize detection of clinically-related changes, chemokine expression was compared in 17β-estradiol protected versus sham pellet implanted mice during the peak acute phase of disease (16-17 days after immunization with MBP-Ac1-11 peptide/CFA) and during the chronic phase (28 days after immunization). […] A quantitative method—the RNase protection assay—was employed to examine RNA synthesis for the following chemokines: RANTES, MIP-1α, MCP-1, and TCA-3 (C—C-subfamily); and MIP-2 and IP-10 (C—X—C-subfamily). The tissue sample for RPA was prepared by homogenization of whole spinal cord and total cellular RNA was extracted.

splenic T cells = test: Splenic T cell proliferation and cytokine responses of treated Tg mice with EAE; format: in vivo; conditions: 0.36 mg pellet, average
Experimental: Proliferation assay. Spleens (SPL) were removed surgically, and single cell suspensions were prepared. Proliferative responses of T cells were determined in 96-well microtiter plates by incubating 4×10^5 spleen cells plus antigen at an optimal concentration of 20 μg/well. Cultures were incubated for 72 hr at 37° C. and 7% CO2, the last 18 hr in the presence of 0.5 μCi ^3H-thymidine. Cells were harvested onto glass fiber filters, and thymidine uptake was determined by liquid scintillation. Mean cpm±SEM were calculated from triplicate wells. The stimulation index (SI) was obtained by dividing cpm from antigen-stimulated wells by cpm from wells with no antigen. SI in cultures stimulated with GST alone was subtracted from the SI induced with GST-BV8S2 protein.
Proliferation assay. Proliferation responses of splenic T cells were determined essentially as described in Example II, except that antigen was used at an optimal concentration of 50 μg/ml.

For `C[C@]12CC[C@@H]3c4ccc(O)cc4CC[C@H]3[C@@H]1CC[C@@H]2O` [17β-estradiol], the “CD4, % of Total” value ([1]; 0.36 mg pellet) was 49%, the “CD25, % of CD4+ T cells” value ([1]; 0.36 mg pellet) was 5.9% and the “CD44, % of CD4+ T cells” value ([1]; 0.36 mg pellet) was 43%. For the same compound, the “CD62L, % of CD4+ T cells” value ([1]; 0.36 mg pellet) was 7.0%, the “CD69, % of CD4+ T cells” value ([1]; 0.36 mg pellet) was 6.6% and the “CD49d, % of CD4+ T cells” value ([1]; 0.36 mg pellet) was 45%. The “FASL, % of CD4+ T cells” value ([1]; 0.36 mg pellet) was 2.7%, the “CD4, % of Total” value ([1]; 2.5 mg pellet) was 49% and the “CD25, % of CD4+ T cells” value ([1]; 2.5 mg pellet) was 6.3%. The “CD44, % of CD4+ T cells” value ([1]; 2.5 mg pellet) was 41%, the “CD62L, % of CD4+ T cells” value ([1]; 2.5 mg pellet) was 6.7% and the “CD69, % of CD4+ T cells” value ([1]; 2.5 mg pellet) was 6.5%. The “CD49d, % of CD4+ T cells” value ([1]; 2.5 mg pellet) was 43%, the “FASL, % of CD4+ T cells” value ([1]; 2.5 mg pellet) was 4.2% and the “LT-β, TNF-α and IFN-γ message in spinal cord at peak of EAE” value (spinal cord mRNA) was “significantly inhibited”. The “chemokine mRNA expression in spinal cord (RANTES, MIP-1α, MIP-2, IP-10, MCP-1)” value (spinal cord mRNA; intact Tg females, peak of disease p<0.001) was “profoundly lower levels”, the “chemokine mRNA expression in spinal cord” value (spinal cord mRNA; ovariectomized females) was “strongly inhibited” and the “mRNA levels for CCR1, CCR2 and CCR5 in spinal cord” value (spinal cord mRNA; p<0.001) was “strongly inhibited”. The “inhibition of proliferation of MBP-Ac1-11 specific T cells” value (splenic T cells) was “about 47%”.
